# Tests used:
# [1] = system: Sacch. Cerevisae DSM 70449; test: Agar plate count after contact with antifungal; assay type: cell-based, Saccharomyces cerevisae; details: for Agar plate count contact time 4 h: 400 mg/L
# Source text: (§1) The word “bactericide” refers to a treatment having the effect of reducing a bacterial population by at least three decimal logarithms of colony forming units/ml on an agar plate count of a sample after treatment.
# (§2) The toxicity results on yeasts and on bacteria are presented in the table below displaying the duration of exposure of the fungal flora to molecule A1 and the associated fluorescence measurement: yeasts lysis after exposure to the antifungal was confirmed by microscopic examination and methylene blue staining.
# (§3) The words “contact time” refer to below, the time of exposure of the microorganisms to the fungicidal product, here molecule A1.
# (§4) Below: “No CFU” is the abbreviation for “No Colony forming unit on agar plate count”.
# (§5) The toxicity results on yeasts and on bacteria are presented in the table below displaying the duration of exposure of the fungal flora to the molecule A2 and are obtained by enumeration on MRS agar media.
# [2] = system: Sacch. Cerevisae Saflager S23; test: Agar plate count after contact with antifungal; assay type: cell-based, Saccharomyces cerevisae; details: 400 mg/L
# Source text: as §1, §2, §3, §4, §5
# Sacch. Diastaticus IFBM = test: Agar plate count after contact with antifungal; assay type: cell-based, Saccharomyces diastaticus
# Source text: as §1, §2, §3, §4, §5
# [3] = system: Acetobacter aceti DSM 3508; test: Agar plate count after contact with antifungal; assay type: cell-based; details: count at contact time 0 h 2.9.10^7 CFU/mL
# Source text: as §1, §2, §3, §4, §5
# [4] = system: Brettanomyces bruxellensis Wyeast labs; test: Agar plate count after contact with antifungal; assay type: cell-based
# Source text: as §1, §2, §3, §4, §5
# Dekkera anomala IFBM = test: Agar plate count after contact with antifungal; assay type: cell-based
# Source text: as §1, §2, §3, §4, §5
# [5] = system: Lactobacillus brevis IFBM; test: Agar plate count after contact with antifungal; assay type: cell-based; details: count at contact time 0 h 7.10^5 CFU/mL
# Source text: as §1, §2, §3, §4, §5
# [6] = system: Lactobacillus lindneri DSM 20690; test: Agar plate count after contact with antifungal; assay type: cell-based
# Source text: as §1, §2, §3, §4, §5
# [7] = system: Lactobacillus parabuchneri DSM 5708; test: Agar plate count after contact with antifungal; assay type: cell-based; details: count at contact time 0 h 1.4.10^6 CFU/mL
# Source text: as §1, §2, §3, §4, §5
# [8] = system: Lactobacillus paracasei IFBM; test: Agar plate count after contact with antifungal; assay type: cell-based; details: count at contact time 0 h 1.4.10^7 CFU/mL
# Source text: as §1, §2, §3, §4, §5
# [9] = system: Oenococcus oeni DSM 20252; test: Agar plate count after contact with antifungal; assay type: cell-based
# Source text: as §1, §2, §3, §4, §5
# Pedicoccus damnosus IFBM = test: Agar plate count after contact with antifungal; assay type: cell-based
# Source text: as §1, §2, §3, §4, §5
# [10] = system: Zyggosaccharomyces bailii; test: Agar plate count after contact with antifungal; assay type: cell-based; details: 400 mg/L
# Source text: as §1, §2, §3, §4, §5
# G. oxydans DSM 7145 = test: Agar plate count after contact with antifungal; assay type: cell-based, Gluconobacter oxydans
# Source text: as §1, §2, §3, §4, §5
# [11] = system: lactic acid bacteria and acetic acid bacteria; test: Bactericidal action on the bacterial flora (conclusion from agar plate counts); assay type: cell-based; details: for Bactericidal action on lactic acid and acetic acid flora: bactericide = reduction by at least three decimal logarithms of CFU/ml
# Source text: as §1, §2, §5
# [12] = system: yeast populations versus lactic acid and acetic acid bacteria; test: Concentration threshold for being antifungal while non-bactericidal; assay type: cell-based; details: estimated
# Protocol: It is estimated that for the molecule A1 the concentration threshold allowing to obtain the effect of the invention of being non-bactericidal for the lactic acid and acetic acid bacteria while being antifungal for the yeast populations is comprised within 50 mg/l or 50 mg/l and 100 mg/l.
# In order to determine whether a particular molecule is suitable for the invention, a person skilled in the art may constitute a first list of antifungal products and a second list of non-bactericidal products for bacteria and select the products appearing in the first and second list for which the fungicidal activity intervenes prior to the bactericidal activity. However, an experimental verification of the fungicidal activity will be necessary to determine the minimum antifungal concentration per mg/L or in microgram per milliliter depending on the targeted fungal flora.
# [13] = 200 mg/L, count at contact time 0 h 6.10^6 CFU/mL
# [14] = 400 mg/L, count at contact time 0 h 6.10^5 CFU/mL
# [15] = 200 mg/L, count at contact time 0 h 4.10^9 CFU/mL
# [16] = 400 mg/L, count at contact time 0 h 4.10^7 CFU/mL
# [17] = 200 mg/L, count at contact time 0 h 7.2.10^5 CFU/mL
# [18] = 400 mg/L, count at contact time 0 h 1.1.10^5 CFU/mL
# [19] = 200 mg/L, count at contact time 0 h 8.10^8 CFU/mL
# [20] = 400 mg/L, count at contact time 0 h 8.10^7 CFU/mL
# [21] = count at contact time 0 h 2.10^5 CFU/mL
compound,measurement,setting,value
"CCC(C)(C)c1ccc(CC(C)CN2C[C@@H](C)O[C@@H](C)C2)cc1 (some centres unmarked) [Molecule A2, Amorolfine]",Agar plate count contact time 4 h,[1]; count at contact time 0 h 5.8.10^5 CFU/mL,No CFU
same,Agar plate count contact time 4 h,[2]; count at contact time 0 h 3.2.10^5 CFU/mL,No CFU
same,Agar plate count contact time 4 h,"Sacch. Diastaticus IFBM; 400 mg/L, count at contact time 0 h 2.10^6 CFU/mL",No CFU
same,Agar plate count contact time 4 h,[3]; 200 mg/L,6.10^6 CFU/mL
same,Agar plate count contact time 4 h,[3]; 400 mg/L,9.10^6 CFU/mL
same,Agar plate count contact time 4 h,[4]; [13],No CFU
same,Agar plate count contact time 4 h,"[4]; 400 mg/L, count at contact time 0 h 1.8.10^6 CFU/mL",No CFU
same,Agar plate count contact time 4 h,"Dekkera anomala IFBM; 400 mg/L, count at contact time 0 h 5.10^3 CFU/mL",No CFU
same,Agar plate count contact time 4 h,[5]; 200 mg/L,1.10^6 CFU/mL
same,Agar plate count contact time 4 h,[5]; 400 mg/L,8.10^5 CFU/mL
same,Agar plate count contact time 4 h,[6]; [13],1.10^6 CFU/mL
same,Agar plate count contact time 4 h,[6]; [14],5.10^5 CFU/mL
same,Agar plate count contact time 4 h,[7]; 200 mg/L,5.10^5 CFU/mL
same,Agar plate count contact time 4 h,[7]; 400 mg/L,3.10^4 CFU/mL
same,Agar plate count contact time 4 h,[8]; 200 mg/L,5.10^7 CFU/mL
same,Agar plate count contact time 4 h,[8]; 400 mg/L,4.10^7 CFU/mL
same,Agar plate count contact time 4 h,[9]; [15],6.10^9 CFU/mL
same,Agar plate count contact time 4 h,[9]; [16],5.10^7 CFU/mL
same,Agar plate count contact time 4 h,Pedicoccus damnosus IFBM; [17],1.5.10^5 CFU/mL
same,Agar plate count contact time 4 h,Pedicoccus damnosus IFBM; [18],1.10^4 CFU/mL
same,Agar plate count contact time 4 h,[10]; count at contact time 0 h 2.2.10^6 CFU/mL,No CFU
same,Agar plate count contact time 4 h,G. oxydans DSM 7145; [19],1.10^9 CFU/mL
same,Agar plate count contact time 4 h,G. oxydans DSM 7145; [20],9.10^7 CFU/mL
same,Bactericidal action on lactic acid and acetic acid flora,[11]; doses of 200 mg/liter,neither bactericidal for the lactic acid flora nor bactericidal for the acetic acid flora
same,Bactericidal action on lactic acid and acetic acid flora,[11]; doses of 400 mg/liter,neither bactericidal for the lactic acid flora nor bactericidal for the acetic acid flora
"C[C@@H]1C[C@@H]([C@H](O)CC2CC(=O)NC(=O)C2)C(=O)[C@@H](C)C1 [Molecule A4, cycloheximide]",Agar plate count contact time 18 h,"[1]; Test No 2: 400 mg/L, count at contact time 0 h 5.10^4 CFU/mL",No CFU
same,Agar plate count contact time 18 h,"Sacch. Diastaticus IFBM; Test No 2: 400 mg/L, count at contact time 0 h 4.10^4 CFU/mL",No CFU
same,Agar plate count contact time 18 h,[3]; 400 mg/L,9.10^7 CFU/mL
same,Agar plate count contact time 18 h,"[4]; Test No 2: 400 mg/L, count at contact time 0 h 7.3.10^5 CFU/mL",No CFU
same,Agar plate count contact time 18 h,"Dekkera anomala IFBM; Test No 2: 400 mg/L, count at contact time 0 h 1.10^5 CFU/mL",1.2.10^1 CFU/mL
same,Agar plate count contact time 18 h,[5]; 400 mg/L,2.10^6 CFU/mL
same,Agar plate count contact time 18 h,[6]; [14],1.10^5 CFU/mL
same,Agar plate count contact time 18 h,[7]; 400 mg/L,6.10^6 CFU/mL
same,Agar plate count contact time 18 h,[8]; 400 mg/L,3.10^7 CFU/mL
same,Agar plate count contact time 18 h,[9]; [16],1.10^8 CFU/mL
same,Agar plate count contact time 18 h,Pedicoccus damnosus IFBM; [18],4.10^4 CFU/mL
same,Agar plate count contact time 18 h,G. oxydans DSM 7145; [20],1.10^8 CFU/mL
same,Effect on bacteria cell integrity,[11]; doses of 400 mg/liter or more,preserves bacteria cell integrity
same,Concentration threshold allowing to obtain the effect of the invention,[12],greater than 300 mg/l
"CC[C@H](C)C[C@H](C)CCCCCCCCC(=O)N[C@H]1C[C@@H](O)[C@@H](NCCN)NC(=O)[C@@H]2[C@@H](O)CCN2C(=O)[C@H]([C@H](O)CCN)NC(=O)[C@H]([C@H](O)[C@@H](O)c2ccc(O)cc2)NC(=O)[C@@H]2C[C@@H](O)CN2C(=O)[C@H]([C@@H](C)O)NC1=O [Molecule A5, caspofungin]",Agar plate count contact time 4 h,[1]; [21],No CFU
same,Agar plate count contact time 4 h,[2]; count at contact time 0 h 3.10^5 CFU/mL,No CFU
same,Agar plate count contact time 4 h,"Sacch. Diastaticus IFBM; 400 mg/L, count at contact time 0 h 4.10^4 CFU/mL",No CFU
same,Agar plate count contact time 4 h,[3]; 200 mg/L,1.10^5 CFU/mL
same,Agar plate count contact time 4 h,[3]; 400 mg/L,2.10^6 CFU/mL
same,Agar plate count contact time 4 h,[4]; [13],No CFU
same,Agar plate count contact time 4 h,"[4]; 400 mg/L, count at contact time 0 h 1.7.10^4 CFU/mL",No CFU
same,Agar plate count contact time 4 h,"Dekkera anomala IFBM; 400 mg/L, count at contact time 0 h 1.4.10^4 CFU/mL",No CFU
same,Agar plate count contact time 4 h,[5]; 200 mg/L,1.10^2 CFU/mL
same,Agar plate count contact time 4 h,[5]; 400 mg/L,2.10^2 CFU/mL
same,Agar plate count contact time 4 h,[6]; [13],9.10^1 CFU/mL
same,Agar plate count contact time 4 h,[6]; [14],1.10^2 CFU/mL
same,Agar plate count contact time 4 h,[7]; 200 mg/L,No CFU
same,Agar plate count contact time 4 h,[7]; 400 mg/L,No CFU
same,Agar plate count contact time 4 h,[8]; 200 mg/L,1.1.10^4 CFU/mL
same,Agar plate count contact time 4 h,[8]; 400 mg/L,1.10^2 CFU/mL
same,Agar plate count contact time 4 h,[9]; [15],6.10^9 CFU/mL
same,Agar plate count contact time 4 h,[9]; [16],5.10^7 CFU/mL
same,Agar plate count contact time 4 h,Pedicoccus damnosus IFBM; [17],No CFU
same,Agar plate count contact time 4 h,Pedicoccus damnosus IFBM; [18],No CFU
same,Agar plate count contact time 4 h,[10]; [21],No CFU
same,Agar plate count contact time 4 h,G. oxydans DSM 7145; [19],1.10^9 CFU/mL
same,Agar plate count contact time 4 h,G. oxydans DSM 7145; [20],9.10^7 CFU/mL
same,Bactericidal action on acetic acid bacteria and the lactic acid bacteria oenooccus oeni,[11]; doses of 200 mg/liter,non-bactericidal
same,Bactericidal action on acetic acid bacteria and the lactic acid bacteria oenooccus oeni,[11]; doses of 400 mg/liter,non-bactericidal
"C[C@@H](c1ncncc1F)[C@](O)(Cn1cncn1)c1ccc(F)cc1F [Molecule A3, voriconazole]",Agar plate count contact time 18 h,"Sacch. Diastaticus IFBM; 400 mg/L, count at contact time 0 h 1.10^4 CFU/mL",No CFU
same,Agar plate count contact time 18 h,[3]; 200 mg/L,6.10^6 CFU/mL
same,Agar plate count contact time 18 h,[3]; 400 mg/L,4.10^7 CFU/mL
same,Agar plate count contact time 18 h,[4]; [13],9.10^1 CFU/mL
same,Agar plate count contact time 18 h,"[4]; 400 mg/L, count at contact time 0 h 8.10^4 CFU/mL",No CFU
same,Agar plate count contact time 18 h,"Dekkera anomala IFBM; 400 mg/L, count at contact time 0 h 7.10^5 CFU/mL",No CFU
same,Agar plate count contact time 18 h,[5]; 200 mg/L,1.10^6 CFU/mL
same,Agar plate count contact time 18 h,[5]; 400 mg/L,1.10^6 CFU/mL
same,Agar plate count contact time 18 h,[6]; [13],1.10^6 CFU/mL
same,Agar plate count contact time 18 h,[6]; [14],7.10^4 CFU/mL
same,Agar plate count contact time 18 h,[7]; 200 mg/L,5.10^5 CFU/mL
same,Agar plate count contact time 18 h,[7]; 400 mg/L,6.10^5 CFU/mL
same,Agar plate count contact time 18 h,[8]; 200 mg/L,5.10^7 CFU/mL
same,Agar plate count contact time 18 h,[8]; 400 mg/L,2.10^7 CFU/mL
same,Agar plate count contact time 18 h,[9]; [15],6.10^9 CFU/mL
same,Agar plate count contact time 18 h,[9]; [16],1.10^8 CFU/mL
same,Agar plate count contact time 18 h,Pedicoccus damnosus IFBM; [17],1.5.10^5 CFU/mL
same,Agar plate count contact time 18 h,Pedicoccus damnosus IFBM; [18],2.10^4 CFU/mL
same,Agar plate count contact time 18 h,G. oxydans DSM 7145; [19],1.10^9 CFU/mL
same,Agar plate count contact time 18 h,G. oxydans DSM 7145; [20],1.10^8 CFU/mL
same,Bactericidal action on lactic acid and acetic acid flora,[11]; doses of 200 mg/liter,neither bactericidal for the lactic acid flora nor bactericidal for the acetic acid flora
same,Bactericidal action on lactic acid and acetic acid flora,[11]; doses of 400 mg/liter,neither bactericidal for the lactic acid flora nor bactericidal for the acetic acid flora
